≈ marks a conversion by molar mass, not a printed value. Read-outs that look alike come from different tables or passages of the source.
Columns and labels:
Experiment in all cases: in vitro antibacterial activity, standard agar dilution method
Type in all cases: cell-based
[1] = system: Escherichia coli NIHJ JC-2; conditions: NIHJJC2, aerobic, read-out: minimum inhibitory concentration (MIC)
[2] = system: Staphylococcus aureus FDA 209P JC-1; conditions: FDA209P, read-out: minimum inhibitory concentration (MIC)
[3] = system: Enterobacter cloacae NR 2946; conditions: NR2946, aerobic, read-out: minimum inhibitory concentration (MIC)
[4] = system: Bacillus subtilis PCI 219; conditions: PCI219, aerobic, read-out: minimum inhibitory concentration (MIC)
[5] = system: Enterococcus faecalis NR 2943; conditions: NR2943, aerobic, read-out: minimum inhibitory concentration (MIC)
[6] = system: Staphylococcus epidermidis NR 2942; conditions: NR2942, aerobic, read-out: minimum inhibitory concentration (MIC)
Escherichia coli NR 2630 = conditions: NR2630; Escherichia coli NR 2630; aerobic; agar dilution; read-out: minimum inhibitory concentration (MIC)
[7] = system: Pseudomonas aeruginosa NR 2950; conditions: NR2950, aerobic, read-out: minimum inhibitory concentration (MIC)
[8] = system: Enterobacter aerogenes NR 2945; conditions: Klebsiella aerogenes, NR2945, aerobic, read-out: minimum inhibitory concentration (MIC)
[9] = system: Staphylococcus epidermidis IFO 12993; conditions: IFO12993, aerobic, read-out: minimum inhibitory concentration (MIC)
[10] = system: Alcaligenes faecalis IFO 13111; conditions: IFO13111, aerobic, read-out: minimum inhibitory concentration (MIC)
[11] = system: Klebsiella pneumoniae FDA PCI 602; conditions: FDAPCI602, aerobic, read-out: minimum inhibitory concentration (MIC)
[12] = system: Proteus rettgeri ATCC 14505; conditions: Providencia rettgeri, ATCC14505, aerobic, read-out: minimum inhibitory concentration (MIC)
[13] = system: Bordetella bronchiseptica ATCC 4617; conditions: ATCC4617, aerobic, read-out: minimum inhibitory concentration (MIC)
[14] = system: Salmonella typhimurium IFO 12529; conditions: Salmonella enterica, aerobic, read-out: minimum inhibitory concentration (MIC)
[15] = system: Citrobacter freundii IFO 12681; conditions: IFO12681, aerobic, read-out: minimum inhibitory concentration (MIC)
[16] = system: Staphylococcus aureus Smith; conditions: read-out: minimum inhibitory concentration (MIC)
[17] = system: Serratia marcescens IFO 12648; conditions: IFO12648, aerobic, read-out: minimum inhibitory concentration (MIC)
[18] = system: Staphylococcus aureus NR 2855
[19] = system: Pseudomonas stutzeri IFO 12695; conditions: Stutzerimonas stutzeri, IFO12695, aerobic, read-out: minimum inhibitory concentration (MIC)
[20] = system: Pseudomonas aeruginosa A3; conditions: aerobic, read-out: minimum inhibitory concentration (MIC)
[21] = system: Proteus vulgaris OX19 ATCC 6898; conditions: ATCC6898, aerobic, read-out: minimum inhibitory concentration (MIC)
[22] = Staphylococcus aureus FDA 209P JC-1, aerobic, agar dilution
[23] = Staphylococcus aureus Smith, aerobic, agar dilution
[24] = NR2855, Staphylococcus aureus NR 2855, aerobic, agar dilution, read-out: minimum inhibitory concentration (MIC)

SMILES | MIC [1] | MIC [2, 22] | MIC [3] | MIC [4] | MIC [5] | MIC [6] | MIC (Escherichia coli NR 2630) | MIC [7] | MIC [8] | MIC [9] | MIC [10] | MIC [11] | MIC [12] | MIC [13] | MIC [14] | MIC [15] | MIC [17] | MIC [19] | MIC [20] | MIC [21] | further results
CN1COc2c(N3CCN(CC(=O)O)CC3)c(F)cc3c(=O)c(C(=O)O)cn1c23 [Example 45] | 0.2 µg/mL (≈ 0.492 µM) | 1.56 µg/mL (≈ 3.84 µM) | 0.2 µg/mL (≈ 0.492 µM) | 0.39 µg/mL (≈ 0.96 µM) | 50 µg/mL (≈ 123 µM) | 3.13 µg/mL (≈ 7.7 µM) | 0.1 µg/mL (≈ 0.246 µM) | 6.25 µg/mL (≈ 15.4 µM) | 0.05 µg/mL (≈ 0.123 µM) | 3.13 µg/mL (≈ 7.7 µM) | 12.5 µg/mL (≈ 30.8 µM) | 0.39 µg/mL (≈ 0.96 µM) | 0.78 µg/mL (≈ 1.92 µM) | 12.5 µg/mL (≈ 30.8 µM) | 0.1 µg/mL (≈ 0.246 µM) | 0.1 µg/mL (≈ 0.246 µM) | 0.78 µg/mL (≈ 1.92 µM) | 0.05 µg/mL (≈ 0.123 µM) | 0.78 µg/mL (≈ 1.92 µM) | 0.1 µg/mL (≈ 0.246 µM) | MIC [16, 23]: 0.78 µg/mL (≈ 1.92 µM); MIC [18, 24]: 3.13 µg/mL (≈ 7.7 µM)
CCN(C)CC1CCN(c2c(F)cc3c(=O)c(C(=O)O)cn4c3c2OCN4C)C1 (centres unmarked) [Example 48, 10-[3-[(ethylmethylamino)methyl]-1-pyrrolidinyl]-9-fluoro-3-methyl-7-oxo-2,3-dihydro-7H-pyrido-[3,2,1-ij]-1,3,4-benzoxadiazine-6-carboxylic acid] | 0.39 µg/mL (≈ 0.964 µM) |  | 0.39 µg/mL (≈ 0.964 µM) | 0.05 µg/mL (≈ 0.124 µM) | 6.25 µg/mL (≈ 15.5 µM) | 0.78 µg/mL (≈ 1.93 µM) | 0.1 µg/mL (≈ 0.247 µM) | 50 µg/mL (≈ 124 µM) | 0.39 µg/mL (≈ 0.964 µM) | 0.39 µg/mL (≈ 0.964 µM) | 3.13 µg/mL (≈ 7.74 µM) | 1.56 µg/mL (≈ 3.86 µM) | 3.13 µg/mL (≈ 7.74 µM) | 6.25 µg/mL (≈ 15.5 µM) | 0.39 µg/mL (≈ 0.964 µM) | 0.39 µg/mL (≈ 0.964 µM) | 1.56 µg/mL (≈ 3.86 µM) | 1.56 µg/mL (≈ 3.86 µM) | 3.13 µg/mL (≈ 7.74 µM) | 0.39 µg/mL (≈ 0.964 µM) | MIC ([2]; Staphylococcus aureus): 0.39 µg/mL (≈ 0.964 µM); MIC [16, 23]: 0.2 µg/mL (≈ 0.495 µM); MIC ([18]; Staphylococcus aureus, NR2855, read-out: minimum inhibitory concentration (MIC)): 0.39 µg/mL (≈ 0.964 µM)
CC(=O)CCN1CCN(c2c(F)cc3c(=O)c(C(=O)O)cn4c3c2OCN4C)CC1 [Example 51, 9-fluoro-3-methyl-7-oxo-10-[4-(3-oxo-n-butyl)-1-piperazinyl]-2,3-dihydro-7H-pyrido[3,2,1-ij]-1,3,4-benzoxadiazine-6-carboxylic acid] | 0.1 µg/mL (≈ 0.239 µM) | 0.2 µg/mL (≈ 0.478 µM) | 0.05 µg/mL (≈ 0.119 µM) | 0.1 µg/mL (≈ 0.239 µM) | 12.5 µg/mL (≈ 29.9 µM) | 0.78 µg/mL (≈ 1.86 µM) | 0.025 µg/mL (≈ 0.0597 µM) | 1.56 µg/mL (≈ 3.73 µM) | 0.025 µg/mL (≈ 0.0597 µM) | 0.78 µg/mL (≈ 1.86 µM) | 3.13 µg/mL (≈ 7.48 µM) | 0.2 µg/mL (≈ 0.478 µM) | 0.2 µg/mL (≈ 0.478 µM) | 1.56 µg/mL (≈ 3.73 µM) | 0.025 µg/mL (≈ 0.0597 µM) | 0.025 µg/mL (≈ 0.0597 µM) | 0.1 µg/mL (≈ 0.239 µM) | 0.05 µg/mL (≈ 0.119 µM) | 0.1 µg/mL (≈ 0.239 µM) | 0.025 µg/mL (≈ 0.0597 µM) | MIC ([16]; Staphylococcus aureus): 0.39 µg/mL (≈ 0.932 µM); MIC [18, 24]: 1.56 µg/mL (≈ 3.73 µM)

More lines, main results first:

MIC [1] | MIC [2, 22] | MIC [3] | MIC [4] | MIC [5] | MIC [6] | MIC (Escherichia coli NR 2630) | MIC [7] | MIC [8] | MIC [9] | MIC [10] | MIC [11] | MIC [12] | MIC [13] | MIC [14] | MIC [15] | MIC [17] | MIC [19] | MIC [20] | MIC [21] | SMILES | further results
0.05 µg/mL (≈ 0.133 µM) | 0.39 µg/mL (≈ 1.04 µM) | 0.05 µg/mL (≈ 0.133 µM) | 0.05 µg/mL (≈ 0.133 µM) | 6.25 µg/mL (≈ 16.6 µM) | 0.39 µg/mL (≈ 1.04 µM) | 0.025 µg/mL (≈ 0.0664 µM) | 3.13 µg/mL (≈ 8.32 µM) | 0.025 µg/mL (≈ 0.0664 µM) | 0.39 µg/mL (≈ 1.04 µM) | 1.56 µg/mL (≈ 4.14 µM) | 0.39 µg/mL (≈ 1.04 µM) | 0.39 µg/mL (≈ 1.04 µM) | 0.39 µg/mL (≈ 1.04 µM) | 0.025 µg/mL (≈ 0.0664 µM) | 0.05 µg/mL (≈ 0.133 µM) | 0.1 µg/mL (≈ 0.266 µM) | 0.1 µg/mL (≈ 0.266 µM) | 0.39 µg/mL (≈ 1.04 µM) | 0.025 µg/mL (≈ 0.0664 µM) | CCN1CCN(c2c(F)cc3c(=O)c(C(=O)O)cn4c3c2OCN4C)CC1 [Example 42] | MIC [16, 23]: 0.39 µg/mL (≈ 1.04 µM); MIC [18, 24]: 0.39 µg/mL (≈ 1.04 µM)
0.2 µg/mL (≈ 0.507 µM) | 0.78 µg/mL (≈ 1.98 µM) | 0.2 µg/mL (≈ 0.507 µM) | 0.05 µg/mL (≈ 0.127 µM) | 12.5 µg/mL (≈ 31.7 µM) | 0.39 µg/mL (≈ 0.989 µM) | 0.05 µg/mL (≈ 0.127 µM) | 6.25 µg/mL (≈ 15.8 µM) | 0.1 µg/mL (≈ 0.254 µM) | 0.78 µg/mL (≈ 1.98 µM) | 1.56 µg/mL (≈ 3.96 µM) | 0.39 µg/mL (≈ 0.989 µM) | 1.56 µg/mL (≈ 3.96 µM) | 0.39 µg/mL (≈ 0.989 µM) | 0.2 µg/mL (≈ 0.507 µM) | 0.2 µg/mL (≈ 0.507 µM) | 0.39 µg/mL (≈ 0.989 µM) | 0.2 µg/mL (≈ 0.507 µM) | 0.78 µg/mL (≈ 1.98 µM) | 0.1 µg/mL (≈ 0.254 µM) | CN1COc2c(N3CCN(CCF)CC3)c(F)cc3c(=O)c(C(=O)O)cn1c23 [Example 44] | MIC [16, 23]: 0.39 µg/mL (≈ 0.989 µM); MIC [18, 24]: 0.39 µg/mL (≈ 0.989 µM)
